Data set [1] deals with OAT1. The settings on record: cited from earlier work.
A short description of data set [2]: 7-days dose range finding study in rats. Conditions: oral, 7 days, 1,500 mg/kg/day.
The target of data set [3] is T1, CNT2 (Homo sapiens, UniProt O43868).
T1 construct: expressed in transfected cells; host or cells: MDCK-II
T1 sequence (O43868 1-658): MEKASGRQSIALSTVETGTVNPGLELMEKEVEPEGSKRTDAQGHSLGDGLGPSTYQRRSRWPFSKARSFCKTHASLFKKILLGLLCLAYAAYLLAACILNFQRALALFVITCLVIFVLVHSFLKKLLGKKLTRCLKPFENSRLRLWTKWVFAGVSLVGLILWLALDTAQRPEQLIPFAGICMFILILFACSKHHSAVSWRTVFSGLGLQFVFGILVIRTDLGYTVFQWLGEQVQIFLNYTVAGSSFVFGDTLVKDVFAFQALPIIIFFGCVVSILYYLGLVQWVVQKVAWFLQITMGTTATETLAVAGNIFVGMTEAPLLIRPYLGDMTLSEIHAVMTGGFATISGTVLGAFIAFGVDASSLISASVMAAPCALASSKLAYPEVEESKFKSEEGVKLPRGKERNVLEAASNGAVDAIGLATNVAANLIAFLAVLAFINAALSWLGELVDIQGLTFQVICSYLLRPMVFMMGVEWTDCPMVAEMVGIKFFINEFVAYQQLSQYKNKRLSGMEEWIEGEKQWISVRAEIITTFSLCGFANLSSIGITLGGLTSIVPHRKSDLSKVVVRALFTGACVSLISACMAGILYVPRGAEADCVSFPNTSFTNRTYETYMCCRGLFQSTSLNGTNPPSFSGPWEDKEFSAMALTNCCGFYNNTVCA
Description: Nucleoside transporter uptake, CNT2-transfected MDCK cells. It counts as in vitro ADME. Conditions: for Uptake compared to control cells: CNT2-transfected cells. The text has this: Each condition was run in triplicate.

A short description of data set [4]: in vitro. The settings on record: PAMPA, pH 7.4. The class given is in vitro ADME. As for the experimental part:
Stirring double-sink PAMPA (patented by Pion Inc.) was employed to determine permeability. Assay was performed as described previously ([Sun et al., 2017]). The PAMPA lipid membrane, which consisted of an artificial membrane of a proprietary lipid mixture and dodecane (Pion Inc.), was optimized to predict cell membrane permeability. This artificial membrane was immobilized on a plastic matrix of a 96-well “donor” filter plate placed below a 96-well “acceptor” plate. Both “donor” and “acceptor” wells were buffered to pH 7.4. […] Permeability calculations were performed using Pion Inc. software and were expressed in the unit of 10^–6 cm/s.

Data set [5] can be described thus: 7-days dose range finding study in monkeys. Conditions: oral, 7 days, 1,000 mg/kg/day.
Data set [6] can be described thus: in vitro. The class given is in vitro ADME, human. Conditions: Sprague-Dawley (rat), CD-1 (mouse), Beagle (dog), monkey. The procedure: Plasma protein binding experiments were carried out in mixed-gender human plasma, male Sprague-Dawley rat plasma, male CD-1 plasma, male Beagle dog plasma, and male Cynomolgus monkey plasma (BioIVT) using a Pierce Rapid Equilibration Dialysis (RED) device. […] Blank phosphate-buffered saline (PBS) (500 μL) was added to each corresponding receiver chamber. After 4 h of incubation (with shaking at 37°C), both sides were aliquoted, and matrix was normalized. Samples were centrifuged at 1000 g for 10 min after adding two volumes of ACN with IS. Supernatants were diluted 1:1 with water and analyzed with LC-MS/MS.
Plasma Protein binding was calculated as follows:
% Bound = [(PARR in Donor–PARR in Receiver)/(PARR in Donor)] × 100.
PARR = peak area response ratio to internal standard, including applicable dilution factors.

Broadly, the Papp is the rate of passage across a membrane or cell layer, normalised by area and donor concentration. Usually fraction unbound stands for the share of the substance not bound to proteins or other matrix.

Structures are written as SMILES. “Also recorded” adds a separate entry of the source.

With `N#C[C@@]1(c2ccc3c(N)ncnn23)O[C@H](CO)[C@@H](O)[C@H]1O` [GS-441524], the “Substrate of OAT1” value in data set [1] is “not a substrate”. Also, the “Tolerability at maximum feasible dose” value in data set [2] and in data set [5] was “well tolerated” each time. Further, the “Substrate of CNT2” value in data set [3] was “not a substrate; also recorded: unlikely to be a substrate”. Further, the “Uptake compared to control cells” value in data set [3] (10 µM) is given as “higher than 2 fold”; in data set [3] (30 and 100 µM) it was “less than 2 fold”. The same compound gave a Papp at 30 min in data set [4] of under 1 ×10⁻⁶ cm/s. The fraction unbound at 4 h, 10 µM in data set [6] (both (human, mixed-gender), male (animals), human) was in the range of 0.62 to 0.78; in data set [6] (male, plasma) it was 0.62 to 0.64.

The values are drawn from PMC9424906 (Frontiers in Pharmacology, 2022).
